Patent US5866118A, “Polypeptides having 3g6-phytase activity from thermomyces and nucleic acids encoding same” (Novo Nordisk Biotech, Inc., priority 1997, dated 1999)

What was measured:
[1] = test system: Thermomyces lanuginosus CBS 586.94 phytase, purified recombinant, SEQ ID NO:2; assay: Steady-state kinetics by substrate titration, assay of inorganic phosphate liberated from corn phytic acid; type: biochemical
Protocol: (§1) All characterizations were performed with the purified recombinant Thermomyces lanuginosus CBS 586.94 phytase described in Example 11. Comparisons were also made where noted with a standard of an Aspergillus niger (ficuum) phytase obtained from Novo Nordisk A/S, Bagsverd, Denmark.
(§2) Enzyme kinetics studies. Enzyme kinetics studies were performed on the Thermomyces phytase and the Aspergillus niger phytase. The studies were accomplished by assay of inorganic phosphate liberated from corn phytic acid (Sigma Chemical Co., St. Louis, Mo.). Standard enzyme reactions were carried out for 30 minutes at 37° C. and pH 5.5 in 0.5% w/w phytic acid. The reaction was quenched by the addition of an equal volume of 15% w/w trichloroacetic acid. After cooling, 100 μl of the resulting mixture was diluted into 1.0 ml of glass distilled water. The sample was incubated at 50° C. for 5 minutes. Color reagent (1.0 ml) was added and the 50° C. incubation was continued for 15 minutes. The absorbance of a 200 μl aliquot was measured at 690 nm with a Molecular Devices Thermomax Microplate Reader. The color reagent is composed of 6N sulfuric acid: water: 2.5% (w/v) ammonium heptamolybdate, tetrahydrate: 10% ascorbate (aqueous) in a ratio of 1:2:1:1 and prepared fresh on a daily basis. Quantitation was based on a standard curve generated with a 10 mM sodium monobasic phosphate standard. One unit U) is defined as a μmole of inorganic phosphate released per minute at 37° C. and pH 5.5.
Steady-state kinetics measurements were made by substrate titration. Phytate concentrations were 2.16, 1.08, 0.541, 0.216, 0.108, and 0.0758 mM for the purposes of Km determination. Phytate concentrations of 1.08, 0.541, 0.216 and 0.108 mM in the presence or absence of 1 mM sodium monobasic phosphate were used for the purpose of evaluating product inhibition.

Aspergillus phytase = biological target: T1, Aspergillus phytase (Aspergillus niger, UniProt P34752); details: Ullah, 1988, Preparative Biochemistry 18: 443-458; read-out: Ki (phosphate, competitive inhibitor); cited from earlier work
T1 sequence (P34752 24-467): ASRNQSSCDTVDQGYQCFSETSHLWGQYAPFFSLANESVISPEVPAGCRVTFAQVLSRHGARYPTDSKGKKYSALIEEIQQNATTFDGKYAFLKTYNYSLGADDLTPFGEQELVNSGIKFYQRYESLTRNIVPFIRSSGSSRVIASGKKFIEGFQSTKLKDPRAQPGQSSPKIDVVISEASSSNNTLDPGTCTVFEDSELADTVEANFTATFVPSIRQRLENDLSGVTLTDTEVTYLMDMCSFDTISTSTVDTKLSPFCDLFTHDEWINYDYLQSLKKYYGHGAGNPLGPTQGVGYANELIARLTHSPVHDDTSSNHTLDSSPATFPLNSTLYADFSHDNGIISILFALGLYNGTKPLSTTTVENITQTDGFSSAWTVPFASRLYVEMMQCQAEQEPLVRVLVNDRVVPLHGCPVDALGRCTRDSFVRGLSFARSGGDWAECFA

[2] = substrate: O=P(O)(O)O[C@H]1[C@H](OP(=O)(O)O)[C@@H](OP(=O)(O)O)[C@H](OP(=O)(O)O)[C@@H](OP(=O)(O)O)[C@H]1OP(=O)(O)O; assay: Steady-state kinetics by substrate titration, assay of inorganic phosphate liberated from corn phytic acid; type: biochemical, Aspergillus niger (ficuum); details: other: 37° C., pH 5.5, phytate 0.0758-2.16 mM
Protocol: as §1
as §2, with “One unit U) is defined as a μmole of inorganic phosphate released per minute at 37° C. and pH 5.5.” left out

Molecule: O=P([O-])(O)O.[Na+] [phosphate, sodium monobasic phosphate]
- product inhibition with 1 mM phosphate present ([1]; 1 mM sodium monobasic phosphate, phytate 0.108-1.08 mM): failed to reveal any type of inhibition
- Ki ([1]; estimated, phytate 0.108-1.08 mM with or without 1 mM sodium monobasic phosphate): > 3000 µM
- Ki (Aspergillus phytase): 1900 µM

Molecule: O=P(O)(O)O[C@H]1[C@H](OP(=O)(O)O)[C@@H](OP(=O)(O)O)[C@H](OP(=O)(O)O)[C@@H](OP(=O)(O)O)[C@H]1OP(=O)(O)O [phytate, myo-inositol hexakisphosphate]
- Km ([1]; 37° C., pH 5.5, phytate 0.0758-2.16 mM, read-out: apparent Km with respect to phytate): ~110 µM

B1: Aspergillus niger (ficuum) phytase, standard obtained from Novo Nordisk A/S (Aspergillus niger) (protein)
chain: T1 sequence (P34752 24-467)
notes: purchased Novo Nordisk A/S, Bagsverd, Denmark
- Km [2]: 200 µM
